≈ marks a conversion by molar mass, not a printed value. Like-named read-outs stand apart in the source and are kept apart here.
Assays:
P. aeruginosa ATCC 27853 = experiment: MIC/MBC, modified macrobroth dilution; format: cell-based, Pseudomonas aeruginosa
Protocol: The final concentration of bacteria in each macrobroth dilution tube was approximately 5×10^5 cfu/ml of Ca-MHB. Serial twofold dilutions of meropenem were used. […] Samples (50 μl) from clear tubes and the cloudy tube with the highest drug concentration were plated on Mueller-Hinton agar (MHA) plates (Hardy Diagnostics, Santa Maria, Calif.). […] Drug carry-over effect was assessed by visual inspection of the distribution of colonies on media plates. The studies were conducted in duplicate and repeated at least once on a separate day.

Pseudomonas aeruginosa = format: cell-based
Protocol: The computer simulations were compared to experimental data from an in-vitro hollow fiber infection model with similar antimicrobial agent exposures (20). Basically the drug was injected directly into the central reservoir to achieve the peak concentration desired. Fresh (drug-free) growth medium (Ca-MHB) was continuously infused from the diluent reservoir into the central reservoir to dilute the drug in order to simulate drug elimination in humans. An equal volume of meropenem-containing medium was removed from the central reservoir concurrently to maintain an isovolumetric system. […]
Various elimination half-lives (1-3 hours) of meropenem were simulated and were validated subsequently in the infection models. Serial samples were obtained at baseline and daily (pre-dose) in duplicate from each hollow fiber system, for quantitative culture to define the effect of various drug exposures on the total bacterial population and on selection of resistant bacterial sub-populations.
Prior to culturing the bacteria quantitatively, the bacterial samples were centrifuged at 15,000 G for 15 minutes and reconstituted with sterile normal saline in order to minimize drug carry-over effect. Total bacterial populations were quantified by spiral plating 10× serial dilutions of the samples (50 μl) onto drug-free Mueller-Hinton agar (MHA) plates (Hardy Diagnostics, Santa Maria, Calif.). […]

[1] = tested on: P. aeruginosa ATCC 27853 and its isogenic OprD− mutant (1000:1); experiment: Murine pneumonia model; format: in vivo, mice
Protocol: Female Swiss-Webster mice (22-26 g) were used; all mice were cared for in accordance to the highest humane and ethical standards, as approved by the Institutional Animal Care and Use Committee (IACUC). The animals were housed in isolation boxes to decrease the risk of infection from extraneous pathogens. They received food and water ad libitum. The animals were rendered neutropenic by 2 intra-peritoneal injections of cyclophosphamide (Sigma, St. Louis, Mo.) 150 mg/kg on day −4 and 100 mg/kg on day −1 prior to infection; previous studies have shown that this regimen would produce neutropenia for 5 days (13, 16). Transient nephrotoxicity was induced by 1 intra-peritoneal injection of uranyl nitrate (5 mg/kg on day −2), which has been previously shown to produce a significant stable reduction in renal function for at least 7 days (21).
Each mouse was anesthetized with a single intra-peritoneal dose ([…]) of tribromoethanol (Sigma, St. Louis, Mo.), and was intubated under laryngoscopic guidance. For each mouse, the correct placement of endotracheal tube was verified by placing a cooled mirror surface close to the exit to observe water vapor condensation. A few colonies of the bacterial isolates were inoculated into Ca-MHB and incubated at 35° C. until they reached late log phase growth. The bacterial suspension was diluted to the desired concentration of approximately 10^8 CFU/ml based on absorbance at 630 nm; a mixture of wild-type and its isogenic OprD^− mutant in a 1000:1 ratio was used to mimic a heterogeneous bacterial population. The inocula (10 μl) were directly inoculated into the trachea of the anesthetized animals.
Two hours after infection, 3 mice were sacrificed by CO2 asphyxiation to ascertain the bacterial burden in lung tissues. The lung tissues were aseptically collected and homogenized in 10 ml of sterile saline. The homogenates were centrifuged at 6000×G for 15 minutes. The supernatant was discarded and the pellets were re-suspended in normal saline to 10× their original volumes in order to minimize drug carry-over effect. They were then diluted ten-fold serially and quantitatively cultured on Mueller-Hinton agar (MHA) plates (Hardy Diagnostics, Santa Maria, Calif.) and MHA plates supplemented with meropenem at 3× the MIC of the wild-type isolate. The media plates were incubated at 35° C. in a humidified incubator for up to 24 hours (for MHA plates) and 72 hours (for meropenem-supplemented MHA plates) before reading and the bacterial burden in lung tissues enumerated.
The remaining mice were observed every 8 hours for 4 days, with or without meropenem (400 mg/kg) given intra-peritoneally every 8 hours (10 mice in each group). Total bacterial burden and those with reduced susceptibility in animal lung tissues were determined in a similar manner upon death or at the end of the experiment. Susceptibility testing was repeated on representative isolates recovered from meropenem-supplemented plates to confirm the presence of resistance.

[2] = 10 mice received meropenem treatment

Q: Which MBC (P. aeruginosa ATCC 27853; Pseudomonas aeruginosa, ATCC27853, P. aeruginosa isolate, read-out: MBC) does the source give for C[C@@H](O)[C@H]1C(=O)N2C(C(=O)O)=C(S[C@@H]3CN[C@H](C(=O)N(C)C)C3)[C@H](C)[C@H]12 [meropenem] here?
A: The MBC was 1 µg/mL (≈ 2.61 µM).

Q: What about the MIC (P. aeruginosa ATCC 27853; Pseudomonas aeruginosa, ATCC27853, P. aeruginosa isolate, read-out: MIC) of the same compound?
A: The MIC was 1 µg/mL (≈ 2.61 µM).

Q: And the MIC (P. aeruginosa ATCC 27853; wild-type isolate used in vivo)?
A: The MIC was 1 µg/mL (≈ 2.61 µM).

Q: And the microbial response (Pseudomonas aeruginosa)?
A: Its microbial response is “associated with regrowth”.

Q: What about the “Cmin/MIC necessary to suppress the emergence of resistance” value (Pseudomonas aeruginosa; Cmax 64 μg/ml, dosing every 8 hours for 5 days) of the same compound?
A: Its value is no less than 4.

Q: And the “survival over 4 days” value ([1]; 400 mg/kg intra-peritoneally every 8 hours)?
A: Its value is 100%.

Q: And the “animals with complete replacement of bacterial population by the OprD− mutant in lung tissue” value ([1]; 400 mg/kg intra-peritoneally every 8 hours, 96 hours)?
A: Its value is 30%.

Q: What about the “mice in which resistance emergence was found” value [1, 2] of the same compound?
A: Its value is 3 mice.

Q: And the “mice that survived up to 96 hours” value [1, 2]?
A: Its value is 10 mice.

Q: What about the “MIC of isolates recovered from meropenem-supplemented MHA plates compared to the OprD− mutant” value ([1]; repeat susceptibility testing) of the same compound?
A: The value was “did not reveal a substantial increase in MIC”.

From patent publication US8452543B2, “High throughput screening for antimicrobial dosing regimens” (priority 2005, dated 2013)
